Results reported in patent US7595395B2, “Gabaergic agents to treat memory deficits” (priority 2005, dated 2009).

Assays:
[1] = system: C57B1/6 mice; experiment: Spontaneous locomotive activity; assay type: in vivo; conditions: 30 mg/kg
Description: Further, animal data for FIGS. 22-26 were obtained using experimental methodologies described in a previously published reference, Influence of benzodiazepine binding site ligands on fear-conditioned contextual memory European journal of Pharmacology, Volume 426, Issues 1-2, 24 Aug. 2001, Pages 45-54, Timothy M. DeLorey, Richard C. Lin, Brian McBrady, Xiaohui He, James M. Cook, Jelveh Lameh and Gilda H. Loew, which is incorporated by reference as if fully set forth here in its entirety. Selected sections of the reference are provided below:
Male C57B1/6 mice were obtained from Charles Rivers Laboratories (Holister, Calif.) at 6 weeks of age. […] All animal protocols used in this study conform to the guidelines determined by the National Institute of Health (USA) Office for Protection from Research Risks and are approved by the Animal Care and Use Committee of the Palo Alto Veterans Administration Medical Center, Palo, Alto, Calif. […]
Mice were allowed to acclimate to the test room for 30 min prior to drug injection. […] Spontaneous locomotor activity was measured via seven sets of photoelectric sensors evenly spaced along the length of the monitoring chamber, 4 cm above the floor of the chamber (San Diego Instruments, San Diego, Calif.). Total activity was recorded in arbitrary units reflective of the number of times a mouse interrupts the photoelectric sensors during a 10-min monitoring session. […]

[2] = system: full panel of receptors (5ht1a ... σ1, σ2); experiment: Full panel receptor binding (secondary binding)
Description: FIGS. 28 A and B provide a full panel Receptor data for certain compounds of the invention. Data on the full panel (secondary binding) are Ki values. The Ki values are reported in nanomolar concentrations, In the Full panel data various receptors were used, including 5ht1a, 5ht1b, 5ht1d, 5ht1e, 5ht2a, 5ht2b, 5ht2c, 5ht3, 5ht5a, 5ht6, 5ht7, α1A, α1B, α2A, α2B, α2C, β1, β2, CB1, CB2, D1, D2, D3, D4, D5, DAT, DOR, H1, H2, H3, H4, imidazoline 1, KOR, M1, M2, M3, M4, M5, MDR1, MOR, NET, NMDA, SERT, σ1, and σ2. 5-HT receptors, 5ht1a, 5ht1b, 5ht1d, 5ht1e, 5ht2a, 5ht2b, 5ht2c, 5ht3, 5ht5a, 5ht6, 5ht7, are receptors for the neurotransmitter and peripheral signal mediator serotonin, also known as 5-hydroxytryptamine or 5-HT. α1A, α1B, α2A, α2B, α2C, β1, β2; CB1, CB2 are adrenoceptors; cannabinoid receptors, D1, D2, D3, D4, D5 are dopamine receptors; DAT is dopamine transporter receptor; DOR is δ-Opioid receptor; H1, H2, H3, H4 are histamine receptors; KOR is κ-Opioid receptor; M1, M2, M3, M4, M5 are muscarinic acetylcholine receptors; MDR represents multidrug resistance in the course of exposure to various compounds that are used in modern anticancer therapy, including cytotoxic drugs and differentiating agents. […]

[3] = target: T1, α5β3γ2 benzodiazepine receptor GABA(A) isoform (UniProt P18507+P31644); experiment: Radioligand competition binding, α5β3γ2 BzR/GABA(A) isoform; parameters: Ki α5; other: text; HEK-T cells (Roth et al.); species or system human and rat; conditions: read-out: Ki α5; HEK-T cells (Roth et al.)
T1 sequence (P18507 1-475): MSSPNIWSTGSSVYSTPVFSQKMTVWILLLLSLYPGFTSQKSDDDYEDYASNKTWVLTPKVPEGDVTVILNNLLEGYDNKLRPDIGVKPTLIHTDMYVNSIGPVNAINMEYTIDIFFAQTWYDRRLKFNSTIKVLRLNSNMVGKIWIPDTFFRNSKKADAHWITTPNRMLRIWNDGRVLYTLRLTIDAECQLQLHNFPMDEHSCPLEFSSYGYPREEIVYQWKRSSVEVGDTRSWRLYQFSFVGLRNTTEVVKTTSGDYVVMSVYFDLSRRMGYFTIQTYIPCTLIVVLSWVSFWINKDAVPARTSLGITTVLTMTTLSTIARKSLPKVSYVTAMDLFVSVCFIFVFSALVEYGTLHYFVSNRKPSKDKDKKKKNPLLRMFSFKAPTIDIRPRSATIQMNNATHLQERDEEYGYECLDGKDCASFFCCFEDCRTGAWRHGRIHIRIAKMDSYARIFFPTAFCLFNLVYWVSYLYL
T1 sequence (P31644 1-462): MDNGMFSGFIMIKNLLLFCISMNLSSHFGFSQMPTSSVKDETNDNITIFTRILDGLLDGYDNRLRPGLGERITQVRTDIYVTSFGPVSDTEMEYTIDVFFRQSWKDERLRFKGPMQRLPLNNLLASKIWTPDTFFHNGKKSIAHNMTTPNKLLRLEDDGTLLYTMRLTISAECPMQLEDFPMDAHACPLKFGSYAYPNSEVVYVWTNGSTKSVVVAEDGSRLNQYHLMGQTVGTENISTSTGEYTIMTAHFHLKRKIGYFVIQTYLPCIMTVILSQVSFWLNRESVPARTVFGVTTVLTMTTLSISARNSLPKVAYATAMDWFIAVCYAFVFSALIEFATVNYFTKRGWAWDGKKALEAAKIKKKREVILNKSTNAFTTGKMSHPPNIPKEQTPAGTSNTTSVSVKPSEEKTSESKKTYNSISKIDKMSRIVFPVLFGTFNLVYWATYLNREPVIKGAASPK

CCc1ccc2c(c1)C(=O)N(C)Cc1c(C(=O)OCCCOC(=O)c3ncn4c3CN(C)C(=O)c3cc(CC)ccc3-4)ncn1-2 [XLi356, 1,3-Bis(8-ethyl-5,6-dihydro-5-methyl-6-oxo-4H-imidazo[1,5a][1,4]benzodiazepine-3-carboxy)propyl diester]
locomotion (in words) [1]: reduced
binding to other receptors in full panel (in words) [2]: do not bind to other receptors at levels of concern
Ki [3]: 107 nM
